Experimental data: article PMC5671725, “Fluorinated Adenosine A2A Receptor Antagonists Inspired by Preladenant as Potential Cancer Immunotherapeutics” (International Journal of Medicinal Chemistry, 2017)
Values after ≈ are worked out from the molar mass of the structure shown.

Experiments:
A2AR [1] = biological target: T1, A2AR (Mus musculus, UniProt Q60613); experiment: Inhibition of A2AR-induced (CGS21680) intracellular cAMP accumulation in lymphocytes; format: cell-based, C57/BL6 mice; set-up: endogenous in cells; host or cells: primary lymphocytes from the spleen of C57/BL6 mice; conditions: 1 µM CGS plus 1 μM compound, 15 min, cAMP ELISA
T1 sequence (Q60613 whole entry): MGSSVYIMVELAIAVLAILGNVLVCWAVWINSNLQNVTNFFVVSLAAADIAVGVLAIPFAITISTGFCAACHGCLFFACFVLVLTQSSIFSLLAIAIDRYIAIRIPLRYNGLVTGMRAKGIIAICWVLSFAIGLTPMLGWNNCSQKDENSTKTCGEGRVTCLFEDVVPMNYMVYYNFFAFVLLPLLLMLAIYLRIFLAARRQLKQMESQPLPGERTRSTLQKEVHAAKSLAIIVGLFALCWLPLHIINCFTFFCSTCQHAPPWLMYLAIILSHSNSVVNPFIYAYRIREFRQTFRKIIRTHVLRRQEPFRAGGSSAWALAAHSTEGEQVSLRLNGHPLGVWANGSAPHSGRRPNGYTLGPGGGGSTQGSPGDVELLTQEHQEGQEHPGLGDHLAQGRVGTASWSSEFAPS
Method: Bioassay of compounds 27–31 and 40 and their parent compounds (4 and 5a) was conducted using two functional assays that evaluate A2AR binding-dependent signaling through A2AR on the surface of T cells. The first assay screens compounds on the basis of their extent of inhibition of A2AR-induced intracellular cAMP accumulation in A2AR expressing lymphocytes. The A2AR agonist, CGS21680 (CGS, 6), was used to activate A2AR.
Figure 4 Intracellular cAMP levels in lymphocytes after incubation with vehicle, 1 µM CGS, and 1 µM CGS plus 1 μM of compounds 4 (preladenant), 27–31, 5a (tozadenant), 40, 2 (KW-6002), and 3 (KW-PEG) are shown. The intracellular cAMP levels were determined 15 min following stimulation using quantitative cAMP ELISA and are expressed as fmol/10^6 cells. Data shown represent mean ± SEM of triplicate samples.
(§1) Measuring functionality of A2AR antagonism by cAMP assay
Stimulation of intracellular cAMP production and measurement of cAMP levels were performed as described previously.[18b] Lymphocytes were isolated from the spleen of C57/BL6 mice and suspended at a concentration of 400,000 cells/well, and then treated with 1 µM CGS 21680 6 (A2AR-specific agonist; from Tocris, Ellisville, MO) with or without KW-6002 2, KW-PEG 3, preladenant 4, tozadenant 5a and their PEGylated analogs 27-31 and 40 (at a concentration of […]). The cells were incubated for 15 min at 37 °C , and the reaction was stopped by addition of 1 N hydrochloric acid. Levels of cAMP were determined by ELISA (Amersham Biosciences, Buckinghamshire, UK). All treatment groups were performed in triplicate. […]

[2] = Intrinsic clearance in rat hepatocytes; format: in vitro ADME
Method: (§2) buffer (pH 7.4 phosphate buffer) was measured by LC-MS/MS after equilibration at 37°C in a dialysis chamber. The fraction unbound (fu) is reported.
(§3) In vitro intrinsic clearance was determined from human liver microsomes or rat hepatocytes using standard methods. Following incubation and preparation, the samples were analyzed using […]
(§4) µl/min/mg or µl/min/1 million cells.

[3] = Intrinsic clearance in human liver microsomes; format: in vitro ADME; conditions: read-out: HLM CLint
Method: as §2, §3, §4

[4] = Log D7.4 shake-flask octanol-water; format: physicochemical; conditions: octanol / 10 mM sodium phosphate pH 7.4, read-out: logD7.4
Method: Determination of Physicochemical Properties […]
A shake-flask method was employed to determine octanol-water distribution coefficients at pH
7.4 (Log D7.4). The aqueous solution used was 10 mM sodium phosphate pH 7.4 buffer. The
method was validated for Log D7.4 ranging from -2 to 5.0. […]

[5] = Aqueous pH 7.4 solubility; format: physicochemical; conditions: aqueous buffer, thermodynamic from solid; 0.1 M phosphate buffer pH 7.4, 25°C, 20-24 hours
Method: (§5) Determination of Physicochemical Properties
(§6) Aqueous pH 7.4 Solubility
(§7) Compounds were dried down from 10 mM DMSO solutions using centrifugal evaporation techniques. Phosphate buffer (0.1 M pH 7.4) was added and StirStix inserted in the glass vials.
Agitation was then performed at a constant temperature of 25°C for 20 -24 hours. The vials were then subjected to double centrifugation (with a tip wash in between) to eliminate any residues of the dried compound. The solutions were then diluted and quantitated using LC/MS/MS. […]

[6] = Human plasma protein binding (equilibrium dialysis, RED device); format: in vitro ADME; conditions: pH 7.4, 10 µM initial concentration, 37°C, read-out: Human PPB (converted)
Method: Figure S1. Docking results of compounds 27-29 via Glide XP method. The H-bond interaction is represented as a pink arrow, pi-pi stacking as a green arrow. (A) Compound 27 docking pattern. (B) Compound 28 docking pose. (C) Compound 29 docking result. Pictures are rendered […]
as §5, §6, §7
Agitation was then performed at a constant temperature of 25°C for 20 -24 hours. The vials were then subjected to double centrifugation (with a tip wash in between) to eliminate any residues of the dried compound. The solutions were then diluted and quantitated using LC/MS/MS.
A shake-flask method was employed to determine octanol-water distribution coefficients at pH 7.4 (Log D7.4). The aqueous solution used was 10 mM sodium phosphate pH 7.4 buffer. The method was validated for Log D7.4 ranging from -2 to 5.0.
Human Plasma Protein Binding (PPB)
PPB was determined using equilibrium dialysis (RED device) to separate free from bound compound. The amount of compound in plasma (10 µM initial concentration) and in dialysis […]
as §2, §3, §4

CL8-1 melanoma = tested on: CL8-1 melanoma; set-up: method as in PMID 18163162, PMID 17404693, PMID 18404426, PMID 18311159, PMID 19201652; conditions: mice; cited from earlier work
A2AR [7] = biological target: T1, A2AR; set-up: endogenous in cells; host or cells: primary lymphocytes from the spleen of C57/BL6 mice; method as in PMID 24126093; conditions: compared with xanthine 2; cited from earlier work
A2AR [8] = biological target: T1, A2AR; set-up: endogenous in cells; method as in PMID 24126093; conditions: compared with xanthine 2; cited from earlier work
[9] = set-up: method as in PMID 24164628, PMID 25311639, PMID 25174927; conditions: Parkinson's disease; cited from earlier work
A2ARs = biological target: T2, A2ARs (Mus musculus, UniProt Q60613); experiment: Concanavalin A (ConA)-induced liver damage assay; format: in vivo; conditions: female C57BL/6 mice, 2 mg kg^-1 compound then Con A 20 mg kg^-1, evaluated at 8 h
T2 construct: from tissue; host or cells: whole animal, female C57BL/6 mice (in vivo)
T2 sequence (Q60613 whole entry): as above
Method: To select lead compounds for immunotherapy application, an in vivo Concanavalin A (ConA)-induced liver damage assay was carried out in C57BL/6 mice through the pharmacological activation and deactivation of A2ARs. A variety of compounds were screened including 2, 3, and 4 [10, 18, 19]. […] Fluorinated analogs were envisioned to potentially serve as leads to ultimately be labeled at the distal position with fluorine-18 (t1/2 = 109.8 min), for diagnostic imaging with positron emission tomography (PET). A series of fluorinated PEG groups with increasing chain lengths were proposed for chemical modification to map the structure-activity relationship (SAR). Such modifications increase both hydrophilicity and molecular weight (MW), potentially to reduce blood-brain barrier (BBB) penetration as predicted by the central nervous system multiparameter optimization (MPO) score reported by Wager et al..
Figure 2 ConA-induced liver damage in C57BL/6 mice via CGS (6), 2, 3 and 4. Female C57BL/6 mice (n = 5) were first injected with A2AR agonist CGS (6, 2 mg kg^−1), 2 mg kg^−1 2, 3, and 4 separately, and then Con A (20 mg kg^−1). Con A-induced liver damage evaluated at 8 h.

A2AR [10] = biological target: T1, A2AR; experiment: Cytokine release assay: IFN-gamma secretion by anti-CD3 activated splenocytes treated with CGS; format: cell-based, C57BL/6 mice; set-up: endogenous in cells; conditions: 0.1 µg/mL anti-CD3, 1 µM CGS plus 1 µM compound, one day, ELISA
Method: The second immunoassay assesses secretion of the cytokine IFN-gamma, since it is considered to be sensitive to the A2AR signaling pathway. In these assays, during T cell receptor (TCR) activation by the CD3 ligand, C57BL/6 mice splenocytes T cells are incubated with A2AR agonist CGS to inhibit IFN-gamma secretion resulting from A2AR-induced immunosuppression via intracellular cAMP. Effective A2AR antagonists block the A2AR-activated signal, thus restoring secretion of the cytokine to potentiate and prolong the immune response.
Figure 6 The IFN-gamma production by splenocytes after activation with 0.1 µg/mL anti-CD3 and when treated with vehicle, 1 µM CGS, and 1 µM CGS plus 1 µM compounds 29, 2 (KW-6002), 3 (KW-PEG), and 4 (preladenant) separately is shown. The IFN-gamma levels were determined in the supernatant one day following stimulation using quantitative ELISA and are expressed as pg/mL. Data shown represent mean ± SEM of triplicate samples.
as §1
Stimulation of intracellular cAMP production and measurement of cAMP levels were performed as described previously.[18b] […] Levels of cAMP were determined by ELISA (Amersham Biosciences, Buckinghamshire, UK). […]

Structure (SMILES) | Rat hepatocyte CLint [2] [μL/min/10^6] | microsomal CLint [3] [µL/min/mg] | logD [4] | solubility [5] [µM] | fraction unbound at 10 µM [6] | Antagonism of CGS-mediated intracellular cAMP accumulation (A2AR [1]) | other results
COc1ccc(N2CCOCC2)c2sc(NC(=O)N3CCC(C)(O)CC3)nc12 [Compound 5a, tozadenant, reference compound] |  |  |  |  |  | inferior antagonism to that of compounds 2 and 3 | 
COCCOCCOCCOCCOCCOCCOCCOCCOc1ccc(N2CCN(C(=O)Nc3nc4c(OC)ccc(N5CCOCC5)c4s3)CC2)cc1 [Compound 40] |  |  |  |  |  | no suppression of intracellular cAMP accumulation | 
Nc1nc2c(cnn2CCN2CCN(c3ccc(OCCF)cc3)CC2)c2nc(-c3ccco3)nn12 [Compound 27] | 29.9 | 16.5 | 2.8 | 74 (≈ 36.4 µg/mL) | 0.01 |  | 
COCCOCCOCCOCCOCCOCCOCCOCCOc1ccc(N2CCN(CCn3ncc4c3nc(N)n3nc(-c5ccco5)nc43)CC2)cc1 [Compound 31] |  |  |  |  |  | decreased antagonism | 
Nc1nc(NCCc2ccc(O)cc2)nc2nc(-c3ccco3)nn12 [Compound 1, ZM241385] |  |  |  |  |  |  | Growth of CL8-1 melanoma (CL8-1 melanoma): delayed growth of CL8-1 melanoma in mice; Levels of endogenous antitumor T cells (CL8-1 melanoma): increased levels of endogenous antitumor T cells
CCn1c(=O)c2c(nc(/C=C/c3ccc(C(=O)OCCOCCOCCOCCOCCOCCOCCOCCOC)c(OC)c3)n2C)n(CC)c1=O [Compound 3] |  |  |  |  |  |  | cAMP suppression (A2AR [7]): enhanced properties; Cytokine IFN-gamma restoration (A2AR [8]): enhanced properties
COCCOc1ccc(N2CCN(CCn3ncc4c3nc(N)n3nc(-c5ccco5)nc43)CC2)cc1 [Compound 4, preladenant] |  |  |  |  |  |  | Efficacy in Phase III trials [9]: failed to show efficacy; ConA-induced liver damage (A2ARs): most severe immune induced liver damage; Restoration of IFN-gamma secretion (A2AR [10]): superior restoration of IFN-gamma secretion compared to either 2 or 3
Nc1nc2c(cnn2CCN2CCN(c3ccc(OCCOCCOCCOCCOCCOCCF)cc3)CC2)c2nc(-c3ccco3)nn12 [Compound 30] |  |  |  |  |  | decreased antagonism | 

The next lines start with results.

Rat hepatocyte CLint [2] [μL/min/10^6] | microsomal CLint [3] [µL/min/mg] | logD [4] | solubility [5] [µM] | fraction unbound at 10 µM [6] | Structure (SMILES) | Antagonism of CGS-mediated intracellular cAMP accumulation (A2AR [1]) | other results
12.8 | 71.9 | 2.5 | 2 (≈ 1.07 µg/mL) | 0.013 | Nc1nc2c(cnn2CCN2CCN(c3ccc(OCCOCCF)cc3)CC2)c2nc(-c3ccco3)nn12 [Compound 28] |  | 
72.9 | 66.1 | 2.3 | 10 (≈ 5.8 µg/mL) | 0.017 | Nc1nc2c(cnn2CCN2CCN(c3ccc(OCCOCCOCCF)cc3)CC2)c2nc(-c3ccco3)nn12 [Compound 29] |  | Restoration of IFN-gamma secretion (A2AR [10]): superior restoration of IFN-gamma secretion compared to either 2 or 3
